The structures appear in SMILES notation. Where “and” joins values, the source holds several entries; their conditions need not be identical. Equal values may be shown once. Toxic doses and inconclusive results are not listed.

This note sets out measurements from PubChem BioAssay AID328 (DTP/NCI, 2004).

In this assay the test system is BDF1 mice, P388 leukemia ip, median survival T/C. The assay is described as follows: NCI In Vivo Anticancer Drug Screen. Data for tumor model P388 Leukemia (intraperitoneal) in B6D2F1 (BDF1) mice. The settings on record: endpoint: median survival time, higher = longer survival. In a few lines:
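Mice carrying the transplantable tumour receive compound or vehicle. Survival is followed in each arm, and the treated measure is divided by the vehicle measure.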

Where [1] appears, read: dose: 25.0 mg/kg/injection, schedule: Q01DX009 (ip), vehicle: Klucel (hydroxypropylcellulose) (HPC).
[2] abbreviates: dose: 50.0 mg/kg/injection, schedule: Q01DX009 (ip), vehicle: Klucel (hydroxypropylcellulose) (HPC).
The mark [3] stands for this setting: dose: 50.0 mg/kg/injection, schedule: Q04DX003 (ip), vehicle: saline with Tween-80.
Where [4] appears, read: dose: 100.0 mg/kg/injection, schedule: Q04DX003 (ip), vehicle: saline with Tween-80.
The mark [5] stands for this setting: dose: 200.0 mg/kg/injection, schedule: Q04DX003 (ip), vehicle: saline with Tween-80.
Setting [6] is: dose: 50.0 mg/kg/injection, schedule: Q01DX009 (ip), vehicle: saline with Tween-80.
[7] abbreviates: dose: 100.0 mg/kg/injection, schedule: Q01DX009 (ip), vehicle: saline with Tween-80.
[8] abbreviates: dose: 100.0 mg/kg/injection, schedule: Q04DX003 (ip), vehicle: saline.

Regarding `S=C(NNc1ccccc1)Nc1ccccc1`, the T/C was 106 % of control under setting [1]; 101 % of control under setting [2]; 96 % of control (dose: 100.0 mg/kg/injection, schedule: Q01DX009 (ip), vehicle: Klucel (hydroxypropylcellulose) (HPC)).
As for `FC(F)(F)c1nc(Cl)nc(Cl)c1Cl`, the T/C reads like this: (dose: 3.12 mg/kg/injection, schedule: Q01DX005 (ip), vehicle: saline) 105 % of control; (dose: 6.25 mg/kg/injection, schedule: Q01DX005 (ip), vehicle: saline) 100 % of control; (dose: 12.5 mg/kg/injection, schedule: Q01DX005 (ip), vehicle: saline) 110 % of control.
Regarding `O=C(c1ccc(C(=O)N2CC2)cc1)N1CC1`, the T/C (dose: 5.0 mg/kg/injection, schedule: Q01DX009 (ip), vehicle: saline with Tween-80) is 95 % of control and the T/C (dose: 20.0 mg/kg/injection, schedule: Q01DX009 (ip), vehicle: saline with Tween-80) was 109 % of control.
Take `O=C(Nc1ccc(Cl)cc1)O/N=C/c1ccccn1`: the T/C reads like this: (dose: 100.0 mg/kg/injection, schedule: Q01DX001 (ip), vehicle: saline with Tween-80) 95 % of control; (dose: 200.0 mg/kg/injection, schedule: Q01DX001 (ip), vehicle: saline with Tween-80) 104 % of control; (dose: 400.0 mg/kg/injection, schedule: Q01DX001 (ip), vehicle: saline with Tween-80) 90 % of control.
Consider `CC1=CC(C)(C)NC(=S)N1c1ccccc1`, for which the T/C is, setting by setting: (dose: 75.0 mg/kg/injection, schedule: Q04DX003 (ip), vehicle: Klucel (hydroxypropylcellulose) (HPC)) 100 % of control; (dose: 100.0 mg/kg/injection, schedule: Q01DX001 (ip), vehicle: Klucel (hydroxypropylcellulose) (HPC)) 95 % of control; (dose: 150.0 mg/kg/injection, schedule: Q04DX003 (ip), vehicle: Klucel (hydroxypropylcellulose) (HPC)) 100 % of control; (dose: 200.0 mg/kg/injection, schedule: Q01DX001 (ip), vehicle: Klucel (hydroxypropylcellulose) (HPC)) 104 % of control; (dose: 300.0 mg/kg/injection, schedule: Q04DX003 (ip), vehicle: Klucel (hydroxypropylcellulose) (HPC)) 100 % of control; (dose: 400.0 mg/kg/injection, schedule: Q01DX001 (ip), vehicle: Klucel (hydroxypropylcellulose) (HPC)) 109 % of control.
As for `Nc1nc(SCc2ccc([N+](=O)[O-])cc2)c2[nH]cnc2n1`, the T/C by setting is: (dose: 100.0 mg/kg/injection, schedule: Q04DX003 (ip), vehicle: saline sonified) 110 % of control; (dose: 200.0 mg/kg/injection, schedule: Q04DX003 (ip), vehicle: saline sonified) 110 % of control; (dose: 400.0 mg/kg/injection, schedule: Q04DX003 (ip), vehicle: saline sonified) 100 % of control.
With `O=C(CCCc1ccc(N(CCCl)CCCl)cc1)Nc1ncccn1`, the T/C (dose: 2.0 mg/kg/injection, schedule: Q01DX009 (ip), vehicle: Klucel (hydroxypropylcellulose) (HPC)) was 88 % of control; the T/C (dose: 3.0 mg/kg/injection, schedule: Q01DX009 (ip), vehicle: Klucel (hydroxypropylcellulose) (HPC)) is 115 % of control; the T/C (dose: 6.0 mg/kg/injection, schedule: Q01DX009 (ip), vehicle: Klucel (hydroxypropylcellulose) (HPC)) was 152 % of control; the T/C (dose: 8.0 mg/kg/injection, schedule: Q01DX009 (ip), vehicle: Klucel (hydroxypropylcellulose) (HPC)) is 188 % of control; the T/C (dose: 18.0 mg/kg/injection, schedule: Q01DX009 (ip), vehicle: Klucel (hydroxypropylcellulose) (HPC)) is 112 % of control; the T/C under setting [1] is 92 % of control.
In the case of `Cn1cnc([N+](=O)[O-])c1Sc1nc(N)nc2nc[nH]c12`, the T/C by setting is: (dose: 7.0 mg/kg/injection, schedule: Q01DX009 (ip), vehicle: saline with Tween-80) 190 % of control; (dose: 11.0 mg/kg/injection, schedule: Q01DX009 (ip), vehicle: saline with Tween-80) 190 % of control; (dose: 16.5 mg/kg/injection, schedule: Q01DX009 (ip), vehicle: saline with Tween-80) 96 % of control.
On to `CCC(O)C(C)C(O)C(C)C(O)C(C)C(O)C(C)C1OC(=O)CC(O)C(C)C(O)CC(O)CCCC(O)CCC(C)C(O)C2(O)C(=O)CC(CC(O)CC(O)CC(O)CC(O)CCCC(O)C1O)OC2=O` (stereo not drawn), for which the T/C is, setting by setting: (dose: 2.5 mg/kg/injection, schedule: Q01DX009 (ip), vehicle: saline) 92 % of control; (dose: 5.0 mg/kg/injection, schedule: Q01DX009 (ip), vehicle: saline) 109 % of control; (dose: 10.0 mg/kg/injection, schedule: Q01DX009 (ip), vehicle: saline) 109 % of control.
`CCCCOCN1CCCCC1`: the T/C is 108 % of control under setting [3], 120 % of control under setting [4] and 104 % of control under setting [5].
Take `CC1(C)N=C(N)N=C(N)N1c1ccc(OCCOc2ccc(S(=O)(=O)F)cc2)c(Cl)c1`: the T/C (dose: 12.5 mg/kg/injection, schedule: Q04DX003 (ip), vehicle: saline with Tween-80) was 158 % of control; the T/C (dose: 13.0 mg/kg/injection, schedule: Q04DX003 (ip), vehicle: saline with Tween-80) is 160 % of control; the T/C (dose: 20.0 mg/kg/injection, schedule: Q04DX003 (ip), vehicle: saline with Tween-80) is 185 % of control; the T/C (dose: 25.0 mg/kg/injection, schedule: Q04DX003 (ip), vehicle: saline with Tween-80) was 170 % of control; the T/C (dose: 30.0 mg/kg/injection, schedule: Q04DX003 (ip), vehicle: saline with Tween-80) was 185 % of control; the T/C (dose: 33.0 mg/kg/injection, schedule: Q01DX009 (ip), vehicle: Klucel (hydroxypropylcellulose) (HPC)) was 227 % of control. Further, the T/C is 154 % of control under setting [2]; 268 % of control under setting [6]; 154 % of control and 162 % of control under setting [3]; 180 % of control (dose: 66.0 mg/kg/injection, schedule: Q04DX003 (ip), vehicle: saline with Tween-80); 163 % of control (dose: 75.0 mg/kg/injection, schedule: Q01DX009 (ip), vehicle: Klucel (hydroxypropylcellulose) (HPC)); 170 % of control (dose: 75.0 mg/kg/injection, schedule: Q04DX003 (ip), vehicle: saline with Tween-80). In addition, the T/C is 90 % of control under setting [7]; 180 % of control under setting [4]; 232 % of control (dose: 150.0 mg/kg/injection, schedule: Q04DX003 (ip), vehicle: saline with Tween-80); 108 % of control under setting [5].
In the case of `Nc1ncc(-c2ccc(CNc3ccc(C(=O)NC(CC(=O)O)CC(=O)O)cc3)cc2)c(N)n1`, the T/C reads like this: (dose: 2.0 mg/kg/injection, schedule: Q04DX003 (ip), vehicle: saline) 113 % of control; (dose: 5.0 mg/kg/injection, schedule: Q04DX003 (ip), vehicle: saline) 104 % of control; (dose: 10.0 mg/kg/injection, schedule: Q04DX003 (ip), vehicle: saline) 104 % of control; (dose: 20.0 mg/kg/injection, schedule: Q04DX003 (ip), vehicle: saline) 109 % of control; (dose: 30.0 mg/kg/injection, schedule: Q04DX003 (ip), vehicle: saline) 118 % of control; under setting [3], 157 % of control. Further, the T/C was 177 % of control (dose: 50.0 mg/kg/injection, schedule: Q04DX003 (ip), vehicle: saline); 242 % of control under setting [4]; 213 % of control under setting [8].
Consider `NC(N)=NCCCCCC(=O)O`, for which the T/C is, setting by setting: under setting [8], 104 % of control; (dose: 200.0 mg/kg/injection, schedule: Q04DX003 (ip), vehicle: saline) 109 % of control; (dose: 400.0 mg/kg/injection, schedule: Q01DX001 (ip), vehicle: saline) 87 % of control.
For the compound `CC1=NC2=NC(CCCC(=O)OCc3ccccc3)=NC3=CC=CC(=N1)N32`, the T/C was 108 % of control (dose: 25.0 mg/kg/injection, schedule: Q01DX009 (ip), vehicle: saline with Tween-80); 110 % of control under setting [6]; 101 % of control under setting [7].
Regarding `NC(=S)c1c(N)n(C2OC(CO)C(O)C2O)c2ncnc(N)c12` (stereo not drawn), the T/C (dose: 12.5 mg/kg/injection, schedule: Q04DX003 (ip), vehicle: saline) is 114 % of control and the T/C (dose: 25.0 mg/kg/injection, schedule: Q04DX003 (ip), vehicle: saline) was 112 % of control.
